Experimental data published in PubChem BioAssay (NCI).
Values joined by “and” are separate entries in the source; they are usually repeats but may differ in a detail not shown here. Equal entries are not always repeated.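 Cultured in 96-well plates, cells were exposed to test compound for 48 hours across five concentrations. GI50: concentration for 50% inhibition of growth. The concentration for full growth arrest is given as TGI.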

What was measured:
Assay in all cases: DTP human tumour cell line panel, 48 h
SNB-19 CNS = test system: SNB-19 CNS
A549 NSCLC = test system: A549 NSCLC
MCF7 breast = test system: MCF7 breast
SW-620 colon = test system: SW-620 colon
SF-268 CNS = test system: SF-268 CNS
DU-145 prostate = test system: DU-145 prostate
HL-60(TB) leukemia = test system: HL-60(TB) leukemia
UACC-257 melanoma = test system: UACC-257 melanoma
CCRF-CEM leukemia = test system: CCRF-CEM leukemia
NCI-H460 lung = test system: NCI-H460 lung

Compound	GI50 (SNB-19 CNS)	TGI (SNB-19 CNS)	GI50 (A549 NSCLC) [µM]	TGI (A549 NSCLC) [µM]	GI50 (MCF7 breast)	TGI (MCF7 breast)	GI50 (SW-620 colon)	TGI (SW-620 colon) [µM]	GI50 (SF-268 CNS)	TGI (SF-268 CNS) [µM]	GI50 (DU-145 prostate)	TGI (DU-145 prostate)	GI50 (HL-60(TB) leukemia) [µM]	TGI (HL-60(TB) leukemia)	GI50 (UACC-257 melanoma)	TGI (UACC-257 melanoma) [µM]	GI50 (CCRF-CEM leukemia) [µM]	TGI (CCRF-CEM leukemia)	GI50 (NCI-H460 lung) [µM]	TGI (NCI-H460 lung) [µM]
CCOC(=O)c1cc2c(n1Cc1cccc(OC)c1)-c1oncc1CC2	4.72 µM	> 100 µM	9.42	> 100	0.487 µM	> 100 µM	0.433 µM	> 100	18 µM	> 100	2.27 µM	> 100 µM	0.297	1.63 µM	39.6 µM	> 100	1.43	> 100 µM	0.511	> 100
Cc1cc2c(-c3nc4ccccc4[nH]3)c(O)c(O)cc2c(O)c1-c1c(C)cc2c(-c3nc4ccccc4[nH]3)c(O)c(O)cc2c1O	0.0202 µM	9.62 µM	0.0117	9.66	0.018 µM	6.84 µM	0.0209 µM	> 22	0.0312 µM	3.72	0.0205 µM	10.1 µM	0.0328	> 50 µM	0.136 µM	16.2	0.0113	> 50 µM	0.00751	0.112
N#Cc1c(N)nn(C(=O)c2ccc(NC(=O)c3ccccn3)cc2)c1-c1ccc(Cl)cc1	4.15 µM	33.3 µM	3.24	12.8	2.71 µM	> 100 µM	3.7 µM	> 100	3.55 µM	24.1	2.7 µM	7.29 µM	> 100	> 100 µM	4.34 µM	68.3	8.86	> 100 µM	4.02	61.7
N/C(=N\N=C\c1ccc2c(c1)OCO2)NO	–	> 100 µM	–	> 100	–	> 100 µM	–	> 100	–	75.4	–	99 µM	–	36 µM	–	> 100	–	51.1 µM	–	> 100
COc1ccc(CCNc2nc3ccccc3c3[nH]c4ccccc4c23)cc1OC	3.84 µM	15.4 µM	2.66	8.24	2.2 µM	5.32 µM	2.34 µM	6.07	4.77 µM	20.6	3.85 µM	15.8 µM	1.65	3.88 µM	1.99 µM	3.8	1.87	13.8 µM	2.1	5.93
CC1(CCCC2(C)CCNC2=O)OCCO1 (stereo not given)	–	> 10 µM	–	> 10	–	> 10 µM	–	> 10	–	> 10	–	> 10 µM	–	> 10 µM	–	> 10	–	> 10 µM	–	> 10
O=c1ccc2nc(-c3ccccc3)nn(-c3ccccc3)c-2c1	16.9 µM	41.1 µM	9.26	36.7	1.11 µM	2.74 µM	1.65 µM	3.53	3.48 µM	13.5	1.92 µM	3.37 µM	0.362	1.24 µM	1.56 µM	2.94	0.274	1.23 µM	6.63	18.3
COc1ccc(C(=O)/C=C/c2ccc(Cl)cc2)cc1S(N)(=O)=O	3.1 µM	10.3 µM	2.69	8.15	1.3 µM	6.77 µM	1.76 µM	3.85	3.13 µM	11.9	3.43 µM	13.2 µM	3.08	8.77 µM	12.2 µM	24.9	3.35	9.35 µM	2.58	6.39
Cc1cc(O)c2c(c1)C[C@@H](O)C1=C2C(=O)c2c(O)ccc(OC3CC(O)C(OC4CC(OC5CCC(OC6CC(O)C(OC7CC(OC8CCC(O)C(C)O8)C(O)C(C)O7)C(C)O6)C(C)O5)C(O)C(C)O4)C(C)O3)c2C1=O (stereo not given in full)	1.41 µM and 1.24 µM	0.335 µM and 2.88 µM and 2.67 µM	2.38	–	0.394 µM and 0.921 µM	0.599 µM and 1.69 µM and 2.32 µM	0.362 µM and 0.216 µM	–	0.295 µM and 0.467 µM	–	2.03 µM and 1.37 µM	0.492 µM and 3.45 µM and 2.69 µM	0.112	0.134 µM and 0.291 µM	1.38 µM and 0.844 µM	–	0.0386	0.255 µM and 0.266 µM	–	0.485
COc1ccc(C(=O)c2cc3c(N)c(C(=O)Nc4cccc(Cl)c4)sc3nc2C)cc1	1.46 µM	> 33.3 µM	1.67	> 33.3	1.25 µM	> 33.3 µM	1.67 µM	> 33.3	2.49 µM	> 33.3	1.26 µM	> 33.3 µM	1.09	> 33.3 µM	30.7 µM	> 33.3	1.2	> 33.3 µM	1.12	> 33.3
O=C(Nc1ccc(Cl)c(Cl)c1)Nc1ccc(Cl)c([N+](=O)[O-])c1	1.38 µM	5.29 µM	1.41	8.27	0.795 µM	8.32 µM	1.1 µM	4.23	1.76 µM	6.84	1.2 µM	> 25 µM	0.947	14.6 µM	2.85 µM	7.15	1.12	> 25 µM	0.888	3.03
CCOC(=O)c1cnc2ccc(Cl)cc2c1NCCCN(C)C	51.1 µM	> 100 µM	21.2	67.7	19.4 µM	75.6 µM	13.4 µM	74.6	19.9 µM	94	25.5 µM	76.3 µM	19.4	50.8 µM	17.3 µM	34.9	22.2	> 100 µM	22.2	82.7
NC(=O)C/C=C/CC(N)=O	–	> 100 µM	–	> 100	–	> 100 µM	–	> 100	–	> 100	–	> 100 µM	–	> 100 µM	–	> 100	–	> 100 µM	–	> 100
